Data reported in patent publication US20210107953A1, “ACTIVE POLYPEPTIDE COMPOUND” (SHAANXI MICOT TECHNOLOGY LIMITED COMPANY, priority 2019, published 2021).

Experiments:
[1] = system: retinoic acid-induced osteoporosis rats; test: CT detection of bone microstructure of thigh bone in retinoic acid-induced osteoporosis rats; format: in vivo, SD rats; conditions: RA-induced osteoporosis rats, 12 w
Procedure: The data were represented by mean value±standard error. After the experiment was completed, thigh bone on the right side of rats were collected, and subjected to CT detection, and […] (BV/TV), the number of trabeculae (TbN) and trabeculae spacing (TbSp) were calculated, and the results were shown in Table 4. An example was selected from each of Control group, Model group, abaloptide group, 20 μg/kg dosage group of Example 1, 20 μg/kg dosage group of Example 2 and 20 μg/kg dosage group of Example 5, and the scanned figures by micron X-ray 3D imaging system of trochlea of their thigh bone were shown in FIG. 1.

[2] = system: retinoic acid-induced osteoporosis rats; test: Three-point mechanical test of thigh bone in retinoic acid-induced osteoporosis rats; format: in vivo, SD rats; conditions: 12 w; for Peak load of three-point mechanics (thigh bone): RA-induced osteoporosis rats
Procedure: Experimental method: SD rats were administered by gavage to induce a rat osteoporosis model. After model establishment, the rats were randomly grouped according to bone mineral densities of thigh bone: (1) vehicle group (Control group): normal saline was subcutaneously administered in an equal volume to the test compound, and soybean oil was administered by gavage in an equal volume to retinoic acid; (2) Model group: normal saline of the same volume was subcutaneously administered; and administered with retinoic acid (RA) by gavage every other day to maintain osteoporosis state; (3) 20 μg dosage group of positive drug abaloptide (Aba-20): 10 μg/kg abaloptide was subcutaneously administered, and retinoic acid was administered by gavage every other day. Administration groups of three dosages were set for each test compound. −10 μg/kg dosage group of the test compound: 10 μg/kg test compound was subcutaneously administered, and retinoic acid was administered by gavage every other day. −20 μg/kg dosage group of the test compound: 20 μg/kg test compound was subcutaneously administered, and retinoic acid was administered by gavage every other day. −40 μg/kg dosage group of the test compound: 40 μg/kg test compound was subcutaneously administered, and retinoic acid was administered by gavage every other day. The administration was carried out 5 times a week, with normal saline as the diluent of test drug, and the administration successively lasted for 12 weeks. The induction dosage of retinoic acid was about 80 mg/kg and the maintenance dosage after model establishment was about 30 mg/Kg, and solvent of inducing agent was soybean oil. […] The thigh bone on the left was subjected to three-point bending test, and the thigh bone on the right was subjected to CT scan and was used to prepare a pathological section. Statistical analysis of data: the data were treated with SPSS 20 software. The data in line with normality test were subjected to one-way analysis of variance; and the data not in line with normality test were subjected to rank sum test. The data were represented by mean value±standard error.

[3] = system: ovary removed SD rats (OVX induced rat osteoporosis model); test: Bone mineral density (DXA) in ovariectomy-induced osteoporosis rats; format: in vivo; conditions: for 0 w Bone mineral density lumbar vertebra / 0 w Bone mineral density thigh bone: 0 w (before administration, baseline); for 25 w Bone mineral density lumbar vertebra / 25 w Bone mineral density thigh bone / 0-25 w percentage of change % lumbar vertebra (bone mineral density) / 0-25 w percentage of change % thigh bone (bone mineral density): 5 times a week; for 0-25 w percentage of change % lumbar vertebra (bone mineral density) / 0-25 w percentage of change % thigh bone (bone mineral density): 25 w vs before administration
Description: The animals had free access to water. […] 1) Bone mineral density (BMD) was detected with a dual-energy X-ray bone densitometry (DXA) before model establishment (−13 w), before administration (0 w), and 6 w, 12 w, 25 w, 37 w and 49 w after administration. […] The data were represented by mean value±standard error. Percentage of bone mineral density change=(bone mineral density at the detection time point−bone density before administration)/bone density before administration*100%

[4] = 5 μg/kg subcutaneous, listed as abaloptide

## Ala-Val-Ser-Glu-His-Gln-Leu-Leu-His-Asp-Lys-Gly-Lys-Ser-Ile-Gln-Asp-Leu-Arg-Arg-Arg-Glu-Leu-Leu-Glu-Lys-Leu-Leu-Ala-Lys-Leu-His-Thr-Ala-Tyr-Arg-Gly-Phe-Gly-Gly (AVSEHQLLHDKGKSIQDLRRRELLEKLLAKLHTAYRGFGG; The sequence is synthesized) [Example 3]
[1]; 10 μg/kg subcutaneous
  BV/TV (CT, thigh bone): 0.33
  TbN, number of trabeculae (CT, thigh bone): 4.17 mm^−1
  TbSp, trabeculae spacing (CT, thigh bone): 0.20 mm
[1]; 20 μg/kg subcutaneous
  BV/TV (CT, thigh bone): 0.30
  TbN, number of trabeculae (CT, thigh bone): 4.21 mm^−1
  TbSp, trabeculae spacing (CT, thigh bone): 0.17 mm
[1]; 40 μg/kg subcutaneous
  BV/TV (CT, thigh bone): 0.39
  TbN, number of trabeculae (CT, thigh bone): 4.22 mm^−1
  TbSp, trabeculae spacing (CT, thigh bone): 0.15 mm
[2]; 10 μg/kg subcutaneous
  Peak load of three-point mechanics (thigh bone): 97.65 N
[2]; 20 μg/kg subcutaneous
  Peak load of three-point mechanics (thigh bone): 126.54 N
[2]; 40 μg/kg subcutaneous
  Peak load of three-point mechanics (thigh bone): 131.74 N
[3]; 2.5 μg/kg group
  0 w Bone mineral density lumbar vertebra: 0.24 ± 0 g/cm^2
  0 w Bone mineral density thigh bone: 0.23 ± 0 g/cm^2
[3]; 2.5 μg/kg subcutaneous
  25 w Bone mineral density lumbar vertebra: 0.27 ± 0 g/cm^2
  25 w Bone mineral density thigh bone: 0.26 ± 0 g/cm^2
  0-25 w percentage of change % lumbar vertebra (bone mineral density): 12.4 ± 2.2 %
  0-25 w percentage of change % thigh bone (bone mineral density): 14.03 ± 1.81 %
[3]; 5 μg/kg group
  0 w Bone mineral density lumbar vertebra: 0.24 ± 0 g/cm^2
  0 w Bone mineral density thigh bone: 0.23 ± 0 g/cm^2
[3]; 5 μg/kg subcutaneous
  25 w Bone mineral density lumbar vertebra: 0.29 ± 0.01 g/cm^2
  25 w Bone mineral density thigh bone: 0.29 ± 0.02 g/cm^2
  0-25 w percentage of change % lumbar vertebra (bone mineral density): 20.41 ± 2.56 %
  0-25 w percentage of change % thigh bone (bone mineral density): 27.19 ± 1.33 %
[3]; 10 μg/kg group
  0 w Bone mineral density lumbar vertebra: 0.24 ± 0.01 g/cm^2
  0 w Bone mineral density thigh bone: 0.23 ± 0 g/cm^2
[3]; 10 μg/kg subcutaneous
  25 w Bone mineral density lumbar vertebra: 0.29 ± 0.01 g/cm^2
  25 w Bone mineral density thigh bone: 0.29 ± 0 g/cm^2
  0-25 w percentage of change % lumbar vertebra (bone mineral density): 22.46 ± 2.25 %
  0-25 w percentage of change % thigh bone (bone mineral density): 28.7 ± 1.6 %

## abaloptide [reference compound]
[1]; 20 μg/kg subcutaneous
  BV/TV (CT, thigh bone): 0.28
  TbN, number of trabeculae (CT, thigh bone): 3.4 mm^−1
  TbSp, trabeculae spacing (CT, thigh bone): 0.22 mm
[2]; 20 μg/kg dosage group
  peak load of thigh bone compared with Model group: did not significantly increase
[2]; 20 μg/kg subcutaneous
  Peak load of three-point mechanics (thigh bone): 119.57 N
[3]; 5 μg/kg group
  0 w Bone mineral density lumbar vertebra: 0.24 ± 0 g/cm^2
  0 w Bone mineral density thigh bone: 0.23 ± 0 g/cm^2
[3]; 5 μg/kg subcutaneous
  25 w Bone mineral density lumbar vertebra: 0.3 ± 0 g/cm^2
  25 w Bone mineral density thigh bone: 0.3 ± 0 g/cm^2
  0-25 w percentage of change % lumbar vertebra (bone mineral density): 21.66 ± 2.12 %
  0-25 w percentage of change % thigh bone (bone mineral density): 30.28 ± 2 %
[3]; [4]
  0-25 w percentage of change % lumbar vertebra (bone mineral density): 21.66±2.12%
  0-25 w percentage of change % thigh bone (bone mineral density): 30.28±2%
